The values below come from patent US8658131B2, “Compounds comprising 4-benzoylpiperidine as a sigma-1-selective ligand” (Washington University, priority 2010, dated 2014).

Data set [1] deals with σ1 receptor (Homo sapiens, UniProt Q99720). Particulars: prior art ligands of FIG. 1; read-out: σ1 receptor binding affinity; cited from earlier work.
Data set [2] has as its target T1, σ1 receptor (Cavia porcellus, UniProt Q60492).
T1 construct: using guinea pig brain membrane homogenates; from tissue; host or cells: guinea pig brain membrane homogenates
Description: σ1 receptor binding assay, (+)-[3H]pentazocine, guinea pig brain membranes. The settings on record: Table 4, Ki values of VAChT specific compounds; tissue not given; read-out: Sigma-1 σ1.

In data set [3] the target is T2, σ2 receptor (Rattus norvegicus, UniProt Q5U3Y7).
T2 sequence (Q5U3Y7 1-176): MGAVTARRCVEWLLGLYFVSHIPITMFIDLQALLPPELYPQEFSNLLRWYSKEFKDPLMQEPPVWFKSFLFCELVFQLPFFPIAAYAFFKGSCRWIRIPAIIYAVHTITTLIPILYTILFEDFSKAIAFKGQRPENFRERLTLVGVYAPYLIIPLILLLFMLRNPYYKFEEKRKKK
Description: σ2 binding of Table 5 compounds. Details: species or system guinea pig. The settings on record: read-out: σ2 Ki (nM) ± SEM; Table 6. The protocol:
Compounds were tested for VAChT binding using highly purified Torpedo synaptic vesicles. The σ1 and σ2 binding affinities were tested in rat brain and in guinea pig membranes, respectively. Structures and Equilibrium binding constants (Ki) are reported in Table 5 and Table 6, respectively. As in previous studies, we define ligand selectivity in terms of a selectivity index which is calculated as Ki (σ1 or σ2)/Ki (VAChT).
Consequently, we also screened the target compounds for sigma binding to identify selective VAChT ligands from this new structural class of agents.

In data set [4] the target is T3, human vesicular acetylcholine transporter (VAChT) (Homo sapiens, UniProt Q16572).
T3 construct: expressed in transfected cells; host or cells: PC12 A123.7 cells (crude extract / homogenized, partially clarified cells)
T3 sequence (Q16572 1-532): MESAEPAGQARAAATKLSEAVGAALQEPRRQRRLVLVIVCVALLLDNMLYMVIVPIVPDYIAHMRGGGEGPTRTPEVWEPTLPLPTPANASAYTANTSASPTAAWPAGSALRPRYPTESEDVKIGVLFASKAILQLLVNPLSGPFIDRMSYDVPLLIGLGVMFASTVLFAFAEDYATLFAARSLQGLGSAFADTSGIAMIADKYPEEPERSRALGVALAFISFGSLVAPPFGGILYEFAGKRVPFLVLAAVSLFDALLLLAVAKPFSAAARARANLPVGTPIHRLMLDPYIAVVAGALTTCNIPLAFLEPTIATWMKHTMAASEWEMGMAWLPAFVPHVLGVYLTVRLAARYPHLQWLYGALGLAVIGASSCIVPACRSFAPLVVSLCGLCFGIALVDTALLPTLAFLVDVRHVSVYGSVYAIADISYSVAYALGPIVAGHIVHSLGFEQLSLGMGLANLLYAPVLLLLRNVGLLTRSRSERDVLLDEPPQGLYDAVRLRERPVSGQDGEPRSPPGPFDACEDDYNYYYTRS
Put plainly: VAChT binding assay, (−)-[3H]vesamicol, human VAChT expressed in PC12 cells. The settings on record: Table 4, Ki values of VAChT specific compounds; source not given; read-out: VAChT.

In data set [5] the target is T4, VAChT (Tetronarce californica, UniProt P81721).
T4 construct: using highly purified Torpedo synaptic vesicles; from tissue
T4 sequence (P81721 1-515): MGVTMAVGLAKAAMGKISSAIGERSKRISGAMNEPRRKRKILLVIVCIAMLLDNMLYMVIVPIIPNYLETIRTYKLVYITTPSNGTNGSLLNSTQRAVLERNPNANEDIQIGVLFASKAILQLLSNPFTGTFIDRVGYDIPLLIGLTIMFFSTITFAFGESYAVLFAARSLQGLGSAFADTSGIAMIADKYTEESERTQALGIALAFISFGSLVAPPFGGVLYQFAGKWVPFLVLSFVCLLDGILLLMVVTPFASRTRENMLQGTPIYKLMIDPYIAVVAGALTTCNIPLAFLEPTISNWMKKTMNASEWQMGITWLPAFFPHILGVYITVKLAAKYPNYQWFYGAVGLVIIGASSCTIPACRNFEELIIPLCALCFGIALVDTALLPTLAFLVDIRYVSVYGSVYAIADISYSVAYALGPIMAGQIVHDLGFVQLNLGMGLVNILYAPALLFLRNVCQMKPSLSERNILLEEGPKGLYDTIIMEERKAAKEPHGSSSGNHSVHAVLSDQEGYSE
Description: biochemical. In kind it is binding.

Data set [6] deals with T5, σ1 receptors (Rattus norvegicus, UniProt Q9R0C9).
T5 construct: tested in rat brain and in guinea pig membranes, respectively; from tissue; host or cells: rat brain
T5 sequence (Q9R0C9 whole entry): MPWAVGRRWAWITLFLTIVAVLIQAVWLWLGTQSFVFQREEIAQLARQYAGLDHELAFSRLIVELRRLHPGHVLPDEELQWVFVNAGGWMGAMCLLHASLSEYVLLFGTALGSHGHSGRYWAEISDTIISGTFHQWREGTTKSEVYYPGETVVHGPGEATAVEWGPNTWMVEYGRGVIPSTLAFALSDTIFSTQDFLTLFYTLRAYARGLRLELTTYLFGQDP
Put plainly: σ1 binding of Table 5 compounds.

The target of data set [7] is T2, σ2 receptor. Put plainly: σ2 receptor binding assay, [3H]DTG, rat liver membrane homogenates. Set-up: conducted using rat liver membrane homogenates; from tissue; host or cells: rat liver membrane homogenates. Particulars: Table 4, Ki values of VAChT specific compounds; tissue not given; read-out: Sigma-2 σ1.
A short description of data set [8]: Biodistribution of [11C]14e in mice. It is filed as in vivo. The method, then: (§1) Radiosynthesis of [^11C] […] Tissue samples were taken and converted to % ID/g for each organ. Ex vivo autoradiography studies were also conducted in mice at 30 min post-injection of the radiotracer. A microPET imaging study was also performed on a male cynomolgus monkey.
Data set [9] addresses T6, σ1 receptors (Mus musculus, UniProt O55242).
T6 construct: Ex vivo autoradiography studies were also conducted in mice; from tissue; host or cells: mouse brain (living animal, ex vivo autoradiography)
Put plainly: Ex vivo autoradiography of [11C]14e in mice. Particulars: 30 min post-injection. The method, then:
as §1

The target in data set [10] is T7, VAChT (Homo sapiens, UniProt Q16572).
T7 sequence (Q16572 1-532): T3 sequence (Q16572 1-532)
Particulars: previous study; cited from earlier work.

Each structure is given as a SMILES string. Where a name gives a salt, the structure may show the parent alone.

Chain of σ1 receptor (Homo sapiens, UniProt Q99720) (Q99720 whole entry, species assumed): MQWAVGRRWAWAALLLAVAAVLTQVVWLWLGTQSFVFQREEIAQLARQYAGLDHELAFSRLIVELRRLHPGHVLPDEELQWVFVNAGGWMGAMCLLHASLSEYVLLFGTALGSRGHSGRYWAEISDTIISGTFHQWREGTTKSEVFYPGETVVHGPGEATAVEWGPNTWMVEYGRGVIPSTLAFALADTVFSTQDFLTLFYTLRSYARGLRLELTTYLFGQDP
T6 sequence (O55242 whole entry): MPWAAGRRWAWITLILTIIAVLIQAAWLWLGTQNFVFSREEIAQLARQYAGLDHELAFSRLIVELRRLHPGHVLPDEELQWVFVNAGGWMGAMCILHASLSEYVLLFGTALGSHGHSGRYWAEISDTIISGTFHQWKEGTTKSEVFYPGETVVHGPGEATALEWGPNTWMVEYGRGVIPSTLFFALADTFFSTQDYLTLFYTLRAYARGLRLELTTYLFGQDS
T1 sequence (Q60492 whole entry): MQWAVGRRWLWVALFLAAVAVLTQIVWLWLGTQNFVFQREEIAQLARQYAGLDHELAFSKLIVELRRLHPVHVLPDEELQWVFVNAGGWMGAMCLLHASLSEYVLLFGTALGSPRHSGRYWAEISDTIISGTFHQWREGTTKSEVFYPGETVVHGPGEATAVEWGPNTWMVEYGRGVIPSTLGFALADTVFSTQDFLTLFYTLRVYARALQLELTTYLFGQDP

Regarding `OC1CN(Cc2cccc(I)c2)CCC1N1CCC(c2ccccc2)CC1` (centres unmarked) [meta-iodobenzyltrozamicol], the Ki on σ1 receptor [1] is 92 nM.

For the compound `Cc1ccc(C2CCN(C3CCCCC3O)CC2)cc1` (single isomer, unassigned; (-)) [(−)-p-methylvesamicol], at σ1 receptor [1], the Ki was 8.1 nM.

With `COc1ccc(C(=O)C2CCN(C3Cc4c(N)cccc4CC3O)CC2)cn1` (centres unmarked) [OS-5-82, (1-(8-Amino-3-hydroxy-1,2,3,4-tetrahydronaphthalen-2-yl)piperidin-4-yl)(6-methoxypyridin-3-yl)methanone oxalate], the Ki at σ1 receptor [2] came to 5682 ± 26 nM; on σ2 receptor [3] it was 10800 ± 1280 nM; in data set [4], 23.3 ± 3.43 nM; at VAChT [5] it was 48 ± 11.4 nM; at σ1 receptors [6] it was 5682 ± 26 nM; on σ2 receptor [7], 10800 ± 1280 nM. The VAChT/σ selectivity result at VAChT [5] (in words) is “moderate or high”. Moreover, the σ1/VAChT on VAChT [5] (selectivity index Ki (σ1)/Ki (VAChT)) was 118.4. The σ2/VAChT at VAChT [5] (selectivity index Ki (σ2)/Ki (VAChT)) was found to be 225.3.

Turning to `[11CH3]Oc1ccc(C(=O)C2CCN([C@@H]3CCN(Cc4ccc(F)cc4)C[C@H]3O)CC2)cc1` [[^11C]14e, ((3′R,4′R)-1′-(4-fluorobenzyl)-3′-hydroxy-1,4′-bipiperidin-4-yl)(4-[^11C]methoxyphenyl)methanone], in [8] (5 min post-injection), the “regional brain uptake, cerebellum” value was 6.34±0.05 % ID/g; the “regional brain uptake, cortex” value is 6.69±0.72 % ID/g; the “regional brain uptake, hippocampus” value was 5.41±0.30 % ID/g; the “regional brain uptake, striatum” value worked out at 6.63±0.56 % ID/g. For the same compound, in data set [8] (high between 5 and 30 min, washed out between 30 and 60 min), the clearance from brain result was “suitable clearance from brain”. Further, the “distribution in brain by autoradiography” value at σ1 receptors [9] is “consistent with the distribution of σ1 receptors in brain”.

For the compound `O=C(c1ccc([18F])cc1)C1CCN(C2Cc3ccccc3CC2O)CC1` (racemic) [FBBV, (±)-trcms-2-Hydroxy-3-(4-(4-[^18F]fluorobenzoyDpiperidino)tetralin], at VAChT [10], the Ki was 2.7 nM.

Turning to `OC1CCCCC1N1CCC(c2ccccc2)CC1` (single isomer, unassigned; (-)) [(−)-vesamicol, (−)-trans-2-(4-phenylpiperidino)cyclohexanol], the Ki on σ1 receptor [1] was 73.5 nM.

On to `O[C@H]1CCCC[C@@H]1N1CCC(c2ccc(I)s2)CC1` [(1S,2S)-2-(4-(5-iodothiophen-2-yl)piperidin-1-yl)cyclohexanol], for which the Ki on σ1 receptor [1] is 9.39 nM.
